# Results as given in publication PMC5306082, “Physiologically based kinetic modeling of the bioactivation of myristicin” (Archives of Toxicology, 2016).
# Columns and labels:
# Format in all cases: in vitro ADME
# [1] = Microsomal conversion of myristicin, male rat liver microsomes
# Method: First, it was determined which organs are involved in the biotransformation of myristicin in rat and human. For this purpose, liver, kidney, lung, and small intestine microsomes from male Sprague–Dawley rat and pooled gender human were used. Incubations were performed by adding myristicin to incubation mixtures containing 1 mg/mL of the microsomal protein preparations and 3 mM NADPH in 0.2 M Tris–HCl (pH 7.4). After 1 min of pre-incubation at 37 °C, myristicin (final concentration, 1000 μM) was added from a 100 times concentrated stock solution in DMSO so that the final DMSO content was 1 % (v/v). Incubations were carried out for 30 min after which the reactions were terminated by adding 25 µl (0.25 times the incubation volume) of ice-cold ACN. Samples were centrifuged for 5 min at 13,000×g, and the supernatant was stored at −20 °C until UPLC analysis. As metabolism of myristicin was observed only in incubations with liver microsomes for male rats and pooled gender human, the determination of kinetic constants for the formation of microsomal metabolites was performed only for the liver fractions. Incubations to determine kinetic constants were performed following the conditions described above using final concentrations of myristicin from 25 to 1000 μM for rat and human liver. In all incubations, the final concentration of DMSO, in which myristicin was dissolved, was kept at 1 % (v/v). The formation of different microsomal metabolites was linear with time and microsomal protein concentration under the conditions described. Blank incubations were performed in the absence of the cofactor NADPH. All incubations were performed in triplicate.
# Secondary metabolism of the relevant 1′-hydroxy metabolite of myristicin was taken into account by determining the kinetic constants for its conversion in (a) glucuronidation, (b) sulfation, and (c) oxidation, again under conditions that allowed adequate definition of kinetic constants and with <10 % substrate conversion. Incubation samples were subjected to UPLC analysis that was performed as described previously (Punt et al. [2008]). Identification was achieved by comparing the UV spectra of the formed metabolites to the spectra of the synthesized 1′-hydroxymyristicin and 1′-oxomyristicin reference standards. Quantification of all formed metabolites was done by comparing the peak areas to those of calibration curves of the corresponding reference compounds, determined using UPLC with photodiode array detection (UPLC-PDA). The UPLC system was composed of a Waters (Waters, Milford, MA) Acquity solvent manager, sample manager, and photodiode array detector, equipped with Water Acquity UPLC BEH C18 column.
# The gradient for analysis of microsomal metabolites was performed with 100 % ACN and ultrapure water containing 0.1 % (v/v) TFA. The flow rate was 0.6 ml/min. The gradient started at 10 % ACN, increased to 50 % ACN over 4 min, increased to 80 % over 0.5 min, followed by decrease to 10 % ACN over 0.5 min, and finally kept at 10 % for 1 min.
# [2] = Glucuronidation of 1′-hydroxymyristicin, male rat liver S9
# Method: (§1) The kinetic constants for the metabolic conversion of 1′-hydroxymyristicin to 1′-hydroxymyristicin glucuronide (HMG) by both male rat and human liver fractions were determined as described previously for the related 1′-hydroxyalkenylbenzenes (Punt et al. [2008]; van den Berg et al. [2012]; Punt et al. [2009]; Martati et al. [2011], [2012]; Al-Subeihi et al. [2011], [2012]). Briefly, incubations contained (final concentrations) 10 mM of UDPGA and 0.5 mg/ml of male Sprague–Dawley or pooled gender human S9 protein in 0.2 M Tris–HCl (pH 7.4) containing 10 mM of MgCl2. To overcome enzyme latency and to obtain maximal glucuronidation activity, incubations containing S9 were pretreated on ice with 0.025 mg/ml alamethicin added from a 200 times concentrated stock dissolved in methanol (Fisher et al. [2000]; Lin and Wong [2002]). After 15 min of alamethicin treatment, samples were pre-incubated at 37 °C for 1 min, and reactions were subsequently started by adding 1′-hydroxymyristicin at final concentrations of 10 to 1200 μM. 1′-Hydroxymyristicin was added from 100 times concentrated stock solutions in DMSO. The reaction mixtures were incubated for 30 and 180 min for rat and human, respectively, and terminated by adding 25 µl (0.25 times the incubation volume) of ice-cold ACN. Blank incubations were carried out in the absence of the cofactor UDPGA. Experiments were performed in triplicate. The longer incubation time in human samples was required due to the lower rate of glucuronidation. The formation of 1′-hydroxymyristicin glucuronide was linear with time and the S9 protein concentration under the experimental conditions described. All samples were centrifuged for 5 min at 16,000×g, and the supernatant was stored at −20 °C until ultra-performance liquid chromatography (UPLC) analysis.
# (§2) 1′-Hydroxymyristicin glucuronide was estimated based on the comparison of the peak area of the formed metabolite to the calibration curve of 1′-hydroxymyristicin at a wavelength of 210 nm. The flow rate was 0.6 ml/min. The gradient was made using a mixture of ACN and ultrapure water containing 0.1 % (v/v) TFA.
# [3] = Glucuronidation of 1′-hydroxymyristicin, human liver S9; conditions: both sexes, human, pH 7.4; 1′-hydroxymyristicin to its glucuronide; S9, UDPGA; read-out: Km
# Method: as §1, §2
smiles,measurement,setting,value
"C=CC(O)c1cc(OC)c2c(c1)OCO2 (stereo not shown) [1′-Hydroxymyristicin, 1′-hydroxymyristicin]",Vmax,"[1]; formation of the metabolite from myristicin, NADPH, mean of three ± SD",0.86 ± 0.18 nmol min^−1 (mg microsomal or S9 protein)^−1
same,In vitro catalytic efficiency,"[1]; formation of the metabolite from myristicin, Vmax/Km × 1000",8.431 μl min^−1 (mg microsomal or S9 protein)^−1
same,"Scaled Vmax, in vivo","[1]; from myristicin, microsomal protein yield 35 mg/g liver",1.806 μmol/h/g tissue
same,In vivo catalytic efficiency,"[1]; from myristicin, scaled Vmax/Km",0.0177 ml/h/g tissue
same,"Km for formation from myristicin, fold lower in rat liver than in human liver incubations",[1]; rat vs human,twofold lower
same,"Vmax for formation from myristicin, fold higher in rat liver than in human liver incubations",[1]; rat vs human,fivefold higher
same,"catalytic efficiency for formation from myristicin, fold higher in male rat liver than in human liver","[1]; scaled catalytic efficiency, rat vs human",13 fold
same,Km at 30 min,"[2]; male, Sprague-Dawley, rat, pH 7.4, 1′-hydroxymyristicin to its glucuronide, S9, UDPGA, read-out: Km",836 µM
same,"catalytic efficiency of glucuronidation, fold higher in male rats than in human",[2]; rat vs human,400 fold
same,Km at 180 min,[3],3140 µM
